Assay results published in patent publication US10654814B2, “Bicyclic hydroxamic acids useful as inhibitors of mammalian histone deacetylase activity” (KANCERA AB, priority 2015, dated 2020).
Where a name gives a salt, the structure may show the parent alone. Read-outs that look alike come from different tables or passages of the source.

Legend:
HDAC6 = HDAC6 (Homo sapiens (Human), UniProt Q9UBN7); experiment: HDAC6 in vitro enzymatic assay (fluorescence); format: biochemical
Description: (§1) Biological Tests Method for Measurement of Enzymatic Activity of HDACs Materials & Methods
(§2) All Examples were tested in HDAC1,2,3,6 and 8 in vitro enzymatic assays. The assay principle is well known (Hauser et al. 2009, Bradner et al. 2010) and all necessary reagents like enzymes, substrates, developer and reference compounds are commercially available (see e.g. BPS Biosciences http://www.bpsbioscience.com/). Stock solutions (10 mM in DMSO) of compounds were serially diluted 1:3 in 11 concentrations with a top concentration of 200 μM for HDAC1,2,3 and 2 μM for HDAC6 and HDAC8. The enzymatic reactions were conducted in a mixture containing assay buffer, bovine serum albumin, HDAC substrate, and a test compound. After enzymatic reaction, developer was added and after an additional incubation time, fluorescence intensity was measured at an excitation wavelength of 360 nm and an emission wavelength of 460 nm. All experiments were performed in duplicate.

HDAC2 = HDAC2 (Homo sapiens (Human), UniProt Q92769); experiment: HDAC2 in vitro enzymatic assay (fluorescence); format: biochemical; conditions: Table 4 selectivity profiling
Chain of HDAC2 (Q92769 whole entry): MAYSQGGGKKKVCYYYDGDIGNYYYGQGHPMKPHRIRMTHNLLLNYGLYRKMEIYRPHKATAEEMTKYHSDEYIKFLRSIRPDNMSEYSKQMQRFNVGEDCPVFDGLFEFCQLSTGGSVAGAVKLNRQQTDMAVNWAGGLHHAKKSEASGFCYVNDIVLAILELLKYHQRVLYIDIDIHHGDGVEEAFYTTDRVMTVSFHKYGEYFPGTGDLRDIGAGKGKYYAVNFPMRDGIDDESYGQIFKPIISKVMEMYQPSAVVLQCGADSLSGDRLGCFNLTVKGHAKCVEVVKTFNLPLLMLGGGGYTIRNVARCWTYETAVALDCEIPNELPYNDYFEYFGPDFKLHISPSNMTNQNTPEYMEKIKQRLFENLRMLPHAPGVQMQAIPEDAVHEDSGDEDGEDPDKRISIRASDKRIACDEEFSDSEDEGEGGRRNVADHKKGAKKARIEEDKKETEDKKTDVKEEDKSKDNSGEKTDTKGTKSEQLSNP
Description: as §1, §2

HDAC1 = HDAC1 (Homo sapiens (Human), UniProt Q13547); experiment: HDAC1 in vitro enzymatic assay (fluorescence); format: biochemical; conditions: Table 4 selectivity profiling
Chain of HDAC1 (Q13547 whole entry): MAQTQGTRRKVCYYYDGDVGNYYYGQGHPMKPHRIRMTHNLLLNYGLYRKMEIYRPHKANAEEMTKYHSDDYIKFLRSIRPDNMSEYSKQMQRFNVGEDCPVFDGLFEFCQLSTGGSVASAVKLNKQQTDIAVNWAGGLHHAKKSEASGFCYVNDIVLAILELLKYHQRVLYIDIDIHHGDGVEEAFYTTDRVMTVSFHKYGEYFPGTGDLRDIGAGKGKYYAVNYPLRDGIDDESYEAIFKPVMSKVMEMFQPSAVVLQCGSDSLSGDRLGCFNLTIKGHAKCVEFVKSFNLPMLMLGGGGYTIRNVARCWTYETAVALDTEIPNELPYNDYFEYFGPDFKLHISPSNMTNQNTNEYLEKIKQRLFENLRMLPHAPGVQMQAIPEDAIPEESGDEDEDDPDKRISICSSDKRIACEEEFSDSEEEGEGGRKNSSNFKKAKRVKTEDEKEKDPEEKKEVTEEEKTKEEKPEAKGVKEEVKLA
Description: as §1, §2

HDAC8 = HDAC8 (Homo sapiens (Human), UniProt Q9BY41); experiment: HDAC8 in vitro enzymatic assay (fluorescence); format: biochemical; conditions: Table 4 selectivity profiling
Chain of HDAC8 (Q9BY41 whole entry): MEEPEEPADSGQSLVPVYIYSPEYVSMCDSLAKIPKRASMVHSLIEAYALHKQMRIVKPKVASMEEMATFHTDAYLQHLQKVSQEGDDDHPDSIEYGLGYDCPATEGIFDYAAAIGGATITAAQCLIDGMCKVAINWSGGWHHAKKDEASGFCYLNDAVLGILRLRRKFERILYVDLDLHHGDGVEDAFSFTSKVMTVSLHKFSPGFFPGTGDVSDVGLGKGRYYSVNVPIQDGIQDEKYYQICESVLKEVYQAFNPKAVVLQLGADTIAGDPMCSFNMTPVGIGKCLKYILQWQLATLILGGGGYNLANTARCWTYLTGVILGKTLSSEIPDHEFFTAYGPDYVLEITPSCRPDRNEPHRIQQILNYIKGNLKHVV
Description: as §1, §2

HDAC3 = HDAC3 (Homo sapiens (Human), UniProt O15379); experiment: HDAC3 in vitro enzymatic assay (fluorescence); format: biochemical; conditions: Table 4 selectivity profiling
Chain of HDAC3 (O15379 whole entry): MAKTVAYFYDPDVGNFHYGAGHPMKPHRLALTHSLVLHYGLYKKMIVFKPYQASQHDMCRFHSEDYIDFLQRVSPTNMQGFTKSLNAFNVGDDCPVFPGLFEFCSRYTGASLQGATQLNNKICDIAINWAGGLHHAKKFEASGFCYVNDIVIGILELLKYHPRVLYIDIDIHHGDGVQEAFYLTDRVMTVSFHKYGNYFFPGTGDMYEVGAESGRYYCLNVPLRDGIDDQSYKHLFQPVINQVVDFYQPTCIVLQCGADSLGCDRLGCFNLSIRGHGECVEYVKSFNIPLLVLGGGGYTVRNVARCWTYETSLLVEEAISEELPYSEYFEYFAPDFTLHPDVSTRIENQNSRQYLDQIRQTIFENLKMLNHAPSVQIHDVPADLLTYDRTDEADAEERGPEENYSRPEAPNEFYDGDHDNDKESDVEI
Chain of HDAC3 (Q9Y618 395-489 partner): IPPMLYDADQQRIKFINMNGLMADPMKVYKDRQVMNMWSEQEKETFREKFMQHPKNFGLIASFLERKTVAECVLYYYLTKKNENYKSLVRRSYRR
Description: as §1, §2

[1] = tested on: AMO-1 (plasmacytoma) cells; experiment: CellTiter-Blue cell viability assay, AMO-1; format: cell-based; conditions: Homo sapiens, AMO1; 72 hours of treatment
Description: (§3) Method for Measurement of Cell Viability
(§4) The CellTiter-Blue® Cell Viability Assay (Promega) provides a homogeneous, fluorometric method for estimating the number of viable cells present in multi-well plates. The assay uses the indicator dye resazurin to measure the metabolic capacity of cells. Viable cells retain the ability to reduce resazurin into resorufin, which is highly fluorescent.
(§5) Stock solutions (10 mM in DMSO) of compounds were serially diluted 1:2 in 11 concentrations. 50 nL/well (10 mM compound stock in DMSO) was acoustically dispensed in 384-well assay plates with an acoustic dispenser (EDC Biosystems ATS-100AV). Final starting concentration in the assay was 20 μM (0.2% DMSO) for test compounds. The following cell-lines (and origin) have been primarily used: PaCa2 (pancreatic), U266 (multiple myeloma), AMO-1 (plasmacytoma), and MDA-MB-231 (breast adenocarcinoma). PBMCs (peripheral blood mononuclear cells) from healthy donors were used as control cells. Cells were seeded in assay plates (384-well black/clear, Greiner #781091) pre-dispensed with compounds, 25 μL/well, and cultured for 72 hours. After 72 hours, Celltiter Blue reagent (Promega # G8081) was diluted 1:10 with PBS and then added to wells (5 μL/well). The plates were incubated for 2 hours following addition of reagent. The plates were read in an EnVision fluorescence reader (PerkinElmer) with Ex544 nm/Em590 nm. Results were calculated as % cell viability compared to background (cells treated with 0.2% DMSO).

PaCa2 (pancreatic) cells = experiment: CellTiter-Blue cell viability assay, PaCa2; format: cell-based; conditions: PaCa-2; 72 hours of treatment
Description: as §3, §4, §5

[2] = tested on: MDA-MB-231 (breast adenocarcinoma) cells; experiment: CellTiter-Blue cell viability assay, MDA-MB-231; format: cell-based; conditions: Homo sapiens, 72 hours of treatment
Description: as §3, §4, §5

[3] = tested on: PBMCs (peripheral blood mononuclear cells) from healthy donors; experiment: CellTiter-Blue cell viability assay, healthy PBMC; format: cell-based; conditions: 72 hours of treatment
Description: as §3, §4, §5

[4] = tested on: U266 (multiple myeloma) cells; experiment: CellTiter-Blue cell viability assay, U266; format: cell-based; conditions: Homo sapiens, U-266; 72 hours of treatment
Description: as §3, §4, §5

[5] = Table 4 selectivity profiling, read-out: IC50 (nM) HDAC6
[6] = Table 3, read-out: IC50 (nM) for inhibition of HDAC6

Chain of HDAC6 (Q9UBN7 whole entry): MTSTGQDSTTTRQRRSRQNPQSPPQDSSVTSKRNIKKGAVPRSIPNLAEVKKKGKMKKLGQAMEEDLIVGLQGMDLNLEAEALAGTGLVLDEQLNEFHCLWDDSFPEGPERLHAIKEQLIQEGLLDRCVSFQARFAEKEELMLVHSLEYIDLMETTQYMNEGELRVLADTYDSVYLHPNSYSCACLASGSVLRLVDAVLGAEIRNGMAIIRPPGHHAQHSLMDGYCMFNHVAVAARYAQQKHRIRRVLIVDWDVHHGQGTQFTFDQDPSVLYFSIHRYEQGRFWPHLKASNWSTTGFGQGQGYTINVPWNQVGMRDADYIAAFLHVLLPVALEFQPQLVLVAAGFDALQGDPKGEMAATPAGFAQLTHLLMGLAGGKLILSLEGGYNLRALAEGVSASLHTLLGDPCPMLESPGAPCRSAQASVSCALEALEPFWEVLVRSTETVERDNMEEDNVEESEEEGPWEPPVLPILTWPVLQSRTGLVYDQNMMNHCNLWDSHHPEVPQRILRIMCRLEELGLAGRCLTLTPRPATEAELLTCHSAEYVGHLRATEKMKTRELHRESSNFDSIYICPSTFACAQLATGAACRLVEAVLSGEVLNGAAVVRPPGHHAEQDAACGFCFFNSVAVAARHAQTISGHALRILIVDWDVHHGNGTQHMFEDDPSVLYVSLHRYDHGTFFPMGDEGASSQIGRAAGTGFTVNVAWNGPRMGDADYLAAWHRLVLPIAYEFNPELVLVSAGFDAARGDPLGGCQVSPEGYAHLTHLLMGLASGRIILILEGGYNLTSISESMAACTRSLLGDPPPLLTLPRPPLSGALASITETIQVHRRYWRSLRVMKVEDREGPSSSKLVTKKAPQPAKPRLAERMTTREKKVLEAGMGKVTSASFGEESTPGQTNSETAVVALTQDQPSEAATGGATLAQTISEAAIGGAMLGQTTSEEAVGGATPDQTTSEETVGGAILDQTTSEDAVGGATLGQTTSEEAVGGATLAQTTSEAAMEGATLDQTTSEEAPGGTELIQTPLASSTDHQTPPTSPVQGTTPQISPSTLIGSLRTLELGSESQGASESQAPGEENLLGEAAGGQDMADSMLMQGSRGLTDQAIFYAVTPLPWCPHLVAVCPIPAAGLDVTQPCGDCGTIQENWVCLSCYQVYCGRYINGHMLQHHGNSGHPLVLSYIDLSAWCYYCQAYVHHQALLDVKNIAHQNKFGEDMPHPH

IC50 (HDAC6; [5]) | IC50 (HDAC2) | IC50 (HDAC1) | IC50 (HDAC8) | IC50 (HDAC3) | IC50 [1] | IC50 [2] | IC50 [4] | IC50 (HDAC6; [6]) | SMILES | IC50 (PaCa2 (pancreatic) cells) | IC50 [3]
64 nM | 55000 nM | 9700 nM | 960 nM | 7200 nM |  |  |  | 64 nM | O=C(NO)c1ccc2sc(-c3cccnc3)cc2c1 [Example 96, N-hydroxy-2-pyridin-3-yl-1-benzothiophene-5-carboxamide] |  | 
 |  |  |  |  | 0.37 µM | 0.42 µM | 0.42 µM |  | CC(C)Oc1ccc(-c2cc3cc(C(=O)NO)ccc3s2)cc1Cl [Example 107, 2-[3-chloro-4-(1-methylethoxy)phenyl]-N-hydroxy-1-benzothiophene-5-carboxamide] | 1.3 µM | > 20 µM
22 nM | 2000 nM | 500 nM | 120 nM | 330 nM |  |  |  | 22 nM | CC(C)c1ccc(-c2cc3cc(C(=O)NO)cnc3o2)cc1 [Example 113, N-Hydroxy-2-[4-(1-methylethyl)phenyl]furo[2,3-b]pyridine-5-carboxamide] |  | 
16 nM | > 200000 nM | > 200000 nM | 384 nM | 960 nM |  |  |  |  | COc1ccc(-c2ccc(-c3nc4cc(C(=O)NO)ccc4o3)c(F)c2)cn1 [Example 176, 2-[2-fluoro-4-(6-methoxypyridin-3-yl)phenyl]-N-hydroxy-1,3-benzoxazole-5-carboxamide] |  | 
4 nM | 6900 nM | 470 nM | 210 nM | 640 nM |  |  |  | 4 nM | COc1cccc(-c2cc3ccc(C(=O)NO)cc3o2)c1 [Example 285, N-hydroxy-2-(3-methoxyphenyl)-1-benzofuran-6-carboxamide] |  | 
7 nM | 3500 nM | 550 nM | 1500 nM | 320 nM |  |  |  | 7 nM | O=C(NO)c1ccc2oc(COc3cccc(F)c3)cc2c1 [Example 162, 2-[(3-Fluorophenoxy)methyl]-N-hydroxy-1-benzofuran-5-carboxamide] |  | 
17 nM | 24000 nM | 1200 nM | 240 nM | 370 nM |  |  |  | 17 nM | O=C(NO)c1ccc2nc(Nc3cccc(OCc4ccccc4)c3)[nH]c2c1 [Example 132, 2-((3-(benzyloxy)phenyl)amino)-N-hydroxy-1H-benzo[d]imidazole-6-carboxamide] |  | 
36 nM | 74000 nM | 14000 nM | 760 nM | 18000 nM |  |  |  | 36 nM | Cc1noc(C)c1-c1cc2cc(C(=O)NO)ccc2s1 [Example 100, 2-(3,5-dimethylisoxazol-4-yl)-N-hydroxy-1-benzothiophene-5-carboxamide] |  | 
 |  |  |  |  | 0.67 µM | 1.2 µM | 0.67 µM |  | CC(C)c1ccc(-c2cc3cc(C(=O)NO)ccc3o2)cc1 [Example 111, N-Hydroxy-2-[4-(1-methylethyl)phenyl]-1-benzofuran-5-carboxamide] | 1.3 µM | > 20 µM
 |  |  |  |  |  |  |  | 1 nM | Cn1c(Nc2cccc(OCc3ccccc3)c2)nc2cc(C(=O)NO)ccc21 [Example 142, 2-((3-(benzyloxy)phenyl)amino)-N-hydroxy-1-methyl-1H-benzo[d]imidazole-5-carboxamide] |  | 
 |  |  |  |  |  |  |  | 30 nM | O=C(NO)c1ccc2sc(-c3cncc(Br)c3)nc2c1 [Example 80, 2-(5-Bromopyridin-3-yl)-N-hydroxy-1,3-benzothiazole-5-carboxamide] |  | 
 |  |  |  |  |  |  |  | 35 nM | CN(C)C(=O)c1ccc(-c2cc3cc(C(=O)NO)ccc3s2)cc1 [Example 108, 2-[4-(dimethylcarbamoyl)phenyl]-N-hydroxy-1-benzothiophene-5-carboxamide] |  | 
 |  |  |  |  |  |  |  | 86 nM | CS(=O)(=O)Nc1ccc(-c2cc3cc(C(=O)NO)ccc3s2)cc1 [Example 109, N-hydroxy-2-{4-[(methylsulfonyl)amino]phenyl}-1-benzothiophene-5-carboxamide] |  | 
 |  |  |  |  |  |  |  | 31 nM | Cc1noc(C)c1-c1ccc(-c2nc3cc(C(=O)NO)ccc3o2)cc1 [Example 181, 2-[4-(3,5-dimethylisoxazol-4-yl)phenyl]-N-hydroxy-1,3-benzoxazole-5-carboxamide] |  | 

Continued, compound first:

SMILES | IC50 (HDAC6; [5]) | IC50 (HDAC2) | IC50 (HDAC1) | IC50 (HDAC8) | IC50 (HDAC3) | IC50 [1] | IC50 [2] | IC50 [4] | IC50 (HDAC6; [6]) | IC50 (PaCa2 (pancreatic) cells) | IC50 [3]
O=C(NO)c1ccc2nc(-c3cccc4cccnc34)sc2c1 [Example 70, N-hydroxy-2-quinolin-8-yl-1,3-benzothiazole-6-carboxamide] | 65 nM | 19000 nM | 6100 nM | 320 nM | 2300 nM |  |  |  |  |  | 
CC(C)c1ccc(-c2cc3ccc(C(=O)NO)cc3[nH]2)cc1 [Example 59, N-Hydroxy-2-[4-(1-methylethyl)phenyl]-1H-indole-6-carboxamide] |  |  |  |  |  | 0.66 µM | 1.2 µM | 1.7 µM |  | 1.4 µM | > 20 µM
O=C(NO)c1ccc2oc(-c3ccc(C4CC4)cc3)nc2c1 [Example 29, 2-(4-Cyclopropylphenyl)-N-hydroxy-1,3-benzoxazole-5-carboxamide] | 10 nM | 10000 nM | 2100 nM | 1400 nM | 1000 nM |  |  |  | 10 nM |  | 
CCN(CC)Cc1cc2ccc(C(=O)NO)cc2o1 [Example 117, 2-[(Diethylamino)methyl]-N-hydroxy-1-benzofuran-6-carboxamide trifluoroacetate] | 26 nM | 69000 nM | 19000 nM | 1400 nM | 25000 nM |  |  |  | 64 nM |  | 
O=C(NO)c1ccc2sc(-c3ccc(F)cc3)nc2c1 [Example 76, 2-(4-Fluorophenyl)-N-hydroxy-1,3-benzothiazole-5-carboxamide] | 18 nM | 6600 nM | 1500 nM | 340 nM | 450 nM |  |  |  | 18 nM |  | 
CC(C)c1ccc(-c2nc3ccc(C(=O)NO)cc3s2)cc1 [Example 61] |  |  |  |  |  | 0.81 µM | 1.8 µM | 1.1 µM |  | 0.9 µM | > 20 µM
O=C(NO)c1ccc2oc(-c3ccc(C(F)(F)F)cc3)nc2c1 [Example 18, N-hydroxy-2-[4-(trifluoromethyl)phenyl]-1,3-benzoxazole-5-carboxamide] | 37 nM | 11000 nM | 2000 nM | 1300 nM | 1600 nM |  |  |  |  |  | 
O=C(NO)c1ccc2oc(-c3ccccc3Cl)nc2c1 [Example 12, 2-(2-chlorophenyl)-N-hydroxy-1,3-benzoxazole-5-carboxamide] | 5 nM | 52000 nM | 1200 nM | 880 nM | 560 nM |  |  |  | 5 nM |  | 
COc1ccc(CN(CCN(C)C)c2nc3cc(C(=O)NO)ccc3o2)cc1OC [Example 244, 2-{(3,4-dimethoxybenzyl)[2-(dimethylamino)ethyl]amino}-N-hydroxy-1,3-benzoxazole-5-carboxamide trifluoroacetate] |  |  |  |  |  |  |  |  | 63 nM |  | 
CC(C)CN(Cc1nc2cc(C(=O)NO)ccc2s1)CC(C)C [Example 274, 2-{[Bis(2-methylpropyl)amino]methyl}-N-hydroxy-1,3-benzothiazole-5-carboxamide trifluoroacetate] |  |  |  |  |  |  |  |  | 16 nM |  | 
O=C(NO)c1ccc2nc(-c3ccc(F)cc3)oc2c1 [Example 50, 2-(4-Fluorophenyl)-N-hydroxy-1,3-benzoxazole-6-carboxamide] |  |  |  |  |  |  |  |  | 34 nM |  | 
COc1ccccc1N1CCN(c2ccc(-c3nc4cc(C(=O)NO)ccc4o3)cn2)CC1 [Example 160, N-hydroxy-2-{6-[4-(2-methoxyphenyl)piperazin-1-yl]pyridin-3-yl}-1,3-benzoxazole-5-carboxamide trifluoroacetate] |  |  |  |  |  |  |  |  | 21 nM |  | 
COc1ccc(-c2nc3cc(C(=O)NO)ccc3o2)cc1 [Example 11, N-hydroxy-2-(4-methoxyphenyl)-1,3-benzoxazole-5-carboxamide] |  |  |  |  |  |  |  |  | 8 nM |  | 
